Measured values reported in patent US9616128B2, “Pharmaceutical compositions comprising paracetamol and process for preparing the same” (Troikaa Pharmaceuticals Ltd, priority 2010, dated 2017).
Converted amounts (≈) assume the structure as drawn.

Tests used:
[1] = Viscosity of paracetamol injectable solutions; format: physicochemical; details: solution in glycofurol at concentration of 205 mg/ml
Procedure: The solitary prior art in which the solution of paracetamol ranging from 60 mg/ml (6% w/v) to 150 mg/ml (15% w/v) have been prepared in glycofurol:ethanol:water (about 44:10:46 or about 4:1:4) and glycofurol: water (48:52 or about 1:1). […] 5 CPS and 14.8 CPS respectively. It is to be noted that the concentrations of the solutions reported in the said prior art is between 60 mg/ml to 150 mg/ml.

physchem = details: solubility of paracetamol
Procedure: The solubility of paracetamol in various solvents, such as glycofurol, PEG, ethanol, and propylene glycol were determined by us. […] The challenge lies in tailoring the appropriate solvent system to provide injectables containing paracetamol in 166 mg/ml to 250 mg/ml so that the therapeutic dose of paracetamol (500 mg) can be delivered in 2 to 3 ml without compromising in viscosity of these injectables.

viscosity of the paracetamol solution [1]: about 57 CPS
solubility (physchem; organic solvent or mixture): ~205 mg/mL (≈ 1360 mM)
solubility (physchem; water): ~14 mg/mL (≈ 92.6 mM)
Compound: CC(=O)Nc1ccc(O)cc1 [paracetamol, p-acetylaminophenol]
